According to patent US8759304B2, “Compositions and methods for increasing telomerase activity” (Telomerase Activation Science, Inc., priority 2003, dated 2014):

Assays:
[1] = tested on: telomerase activity in HEKneoP cells (neonatal keratinocytes); assay: TRAP assay of telomerase activity in HEKneoP cells (neonatal keratinocytes); format: cell-based, human; details: for MEC (minimum effective concentration producing telomerase activity twice that of DMSO control): 100% greater than DMSO control
[2] = tested on: aging adult keratinocytes; assay: Scratch assay (wound healing activity), aging adult keratinocytes; format: cell-based; details: FIG. 4; for Approx. wound width Day1 test: 0.1 μg/ml (about 0.13 μM) 1
Protocol: (§1) The compounds of formula I-III can be used to promote healing of wounds, burns, abrasions or other acute or chronic conditions of the epidermis, as discussed further below. As used herein, “wound healing activity as measured in a scratch assay” refers to the activity as measured in keratinocytes or fibroblasts according to the following protocol, and expressed as the value of WH shown in the formula below.
(§2) Cells are plated in flasks (5×10^5 cells per flask) and cultured for two days in a humidified chamber at 5% CO2, 37° C. To create the “wound”, a 2 ml plastic pipette is gently dragged to “scratch” the cell surface. The ideal wound is approximately 2-3 mm wide and 50 mm long (along the long axis of the tissue culture flask). The cells are retreated with medium containing either vehicle (DMSO; control sample) or test compositions at multiple concentrations. A wound area is identified, the flask marked, and the appearance of the cells documented photographically over 3-4 days continued culturing of the cells.
(§3) Amount of wound closure is determined by measuring the width of the wound over time for compound-treated samples relative to vehicle-treated or other control cells. Measurements are made from the photographs taken for each of the samples on days 1 (immediately after scratching), 2, 3, and 4. Percentage of wound healing (also expressed as “wound healing activity”) is calculated by the following formula: WH=100−[100×Wn/W0], where Wn is the width of the wound on day n and W0 is the width of the wound on day one (i.e. immediately after scratching).
(§4) Wound healing activity of invention compounds 1 (astragaloside IV) and 2 (cycloastragenol) was evaluated in aging keratinocytes, via a scratch assay as described above.
(GRN163 is a telomerase inhibitor oligonucleotide that targets the template region of the telomerase RNA component. Specifically, GRN 163 is a 13-mer N3′→P5′ thiophosphoramidate oligonucleotide, described in detail in PCT Pubn. No. WO 01/18015. GRN137227 is a 13-mer N3′→P5′ thiophosphoramidate control oligonucleotide having a mismatched sequence.)

[3] = tested on: young neonatal keratinocytes; assay: Scratch assay (wound healing activity), young neonatal keratinocytes; format: cell-based; details: FIG. 5, 1 at 0.1 μg/ml, 2 at 0.01 μM; for WHtest (wound healing activity): WH=100−[100×Wn/W0], WHcntrl 52.6
Protocol: as §1, §2, §3, §4

[4] = tested on: aging neonatal keratinocytes; assay: Scratch assay (wound closure), aging neonatal keratinocytes; format: cell-based; details: FIG. 7; compared with 50 ng/mL PDGF
Protocol: as §1
Cells are plated in flasks (5×10^5 cells per flask) and cultured for two days in a humidified chamber at 5% CO2, 37° C. To create the “wound”, a 2 ml plastic pipette is gently dragged to “scratch” the cell surface. The ideal wound is approximately 2-3 mm wide and 50 mm long (along the long axis of the tissue culture flask). The cells are retreated with medium containing either vehicle (DMSO; control sample) or test compositions at multiple concentrations. […]
Amount of wound closure is determined by measuring the width of the wound over time for compound-treated samples relative to vehicle-treated or other control cells. […] Percentage of wound healing (also expressed as “wound healing activity”) is calculated by the following formula: WH=100−[100×Wn/W0], where Wn is the width of the wound on day n and W0 is the width of the wound on day one (i.e. immediately after scratching). […]

[5] = tested on: Salmonella Typhimurium tester strains TA98, TA100, TA1535, TA 1537 and E. coli tester strain WP2 uvrA; assay: Ames test (reverse bacterial mutation); details: levels up to 5000 μg/plate
Protocol: (§5) Studies in support of the invention indicate that the compounds of formula I-III have excellent bioavailability and low toxicity. For example, a representative compound, cycloastragenol (2), was negative for reverse bacterial mutation potential in the Ames test, employing Salmonella Typhimurium tester strains TA98, TA100, TA1535, TA 1537 and E. coli tester strain WP2 uvrA, at levels up to 5000 μg/plate. It was well-tolerated systemically in Sprague-Dawley rats, after single intravenous injections up to 10 mg/kg.

[6] = tested on: Sprague-Dawley rats; assay: Systemic tolerance after single intravenous injection in rats; format: in vivo; details: single intravenous injections up to 10 mg/kg
Protocol: as §5

[7] = day 1 immediately after scratching

CC(C)(O)[C@@H]1CC[C@](C)([C@H]2[C@@H](O)C[C@@]3(C)[C@@H]4C[C@H](O[C@@H]5O[C@H](CO)[C@@H](O)[C@H](O)[C@H]5O)[C@H]5C(C)(C)[C@@H](O[C@@H]6OC[C@@H](O)[C@H](O)[C@H]6O)CC[C@@]56C[C@@]46CC[C@]23C)O1 [Compound 1, astragaloside IV]
MEC (minimum effective concentration producing telomerase activity twice that of DMSO control) [1]: 0.01 µM | telomerase activity ([1]; at 1.0 μM in DMSO, maximum, decreased at higher concentration up to 10 μM): about 360 % of control | WHtest (wound healing activity) ([2]; 0.1 μg/ml 1, WH=100−[100×Wn/W0], WHcntrl 54.5): 100 | Approx. wound width Day1 test [2]: 0 arbitrary units | Approx. wound width Day1 test [2, 7]: 17 arbitrary units | state of scratch wound in treated cells ([2]; 0.1 μg/ml (about 0.13 μM) 1 in DMSO, control still had sizable wound at day 4): confluent at day 4 | Approx. wound width Day1 test [3]: 0 arbitrary units | WHtest (wound healing activity) [3]: 100 | Approx. wound width Day1 test [3, 7]: 18 arbitrary units | wound closure as percent of control, effectiveness [4]: comparable to that of PDGF

CC(C)(O)[C@@H]1CC[C@](C)([C@H]2[C@@H](O)C[C@@]3(C)[C@@H]4C[C@H](O)[C@H]5C(C)(C)[C@@H](O)CC[C@@]56C[C@@]46CC[C@]23C)O1 [Compound 2, cycloastragenol]
MEC (minimum effective concentration producing telomerase activity twice that of DMSO control) [1]: 0.01 µM | telomerase activity ([1]; at 0.1 μM in DMSO, maximum, decreased with further increases in concentration): about 300 % of control | Approx. wound width Day1 test [3]: 2 arbitrary units | WHtest (wound healing activity) [3]: 90.5 | Approx. wound width Day1 test [3, 7]: 21 arbitrary units | reverse bacterial mutation potential [5]: negative | changes in behavior (eating, drinking), gross weight, organ weights, hematology or clinical chemistry ([6]; males or females): No significant dose-dependent changes | systemic tolerance [6]: well-tolerated

CC(C)(O)[C@@H]1CC[C@](C)([C@H]2[C@@H](O)C[C@@]3(C)[C@@H]4C[C@H](O)[C@H]5C(C)(C)[C@@H](O)CC[C@]5(C)C4=CC[C@]23C)O1 [Compound 3, astragenol]
MEC (minimum effective concentration producing telomerase activity twice that of DMSO control) [1]: 0.03 µM

CC1(C)C2=CC[C@@H]3[C@@](C)(CC[C@]4(C)[C@@H]([C@@]5(C)CC[C@@H](C(C)(C)O)O5)[C@@H](O)C[C@@]34C)C2=CCC1O (stereo partly drawn) [Compound 5, 20R,24S-epoxy-3β,16β,25-trihydroxy-9β-methyl-19-norlanost-1,5-diene]
MEC (minimum effective concentration producing telomerase activity twice that of DMSO control) [1]: 0.10 µM

CC(C)(O)[C@@H]1CC[C@](C)([C@H]2[C@@H](O)C[C@@]3(C)[C@@H]4C[C@H](OC5O[C@H](CO)[C@@H](O)[C@H](O)[C@H]5O)[C@H]5C(C)(C)C(O)CCC56C[C@@]46CC[C@]23C)O1 (stereo partly drawn) [Compound 6, cycloastragenol 6-β-D-glucopyranoside]
MEC (minimum effective concentration producing telomerase activity twice that of DMSO control) [1]: 3.2 µM

CC(C)(O)[C@@H]1CC[C@](C)([C@H]2[C@@H](O)C[C@@]3(C)[C@@H]4C[C@H](O)[C@H]5C(C)(C)C(O[C@@H]6OC[C@@H](O)[C@H](O)[C@H]6O)CCC56C[C@@]46CC[C@]23C)O1 (stereo partly drawn) [Compound 7, cycloastragenol 3-β-D-xylopyranoside]
MEC (minimum effective concentration producing telomerase activity twice that of DMSO control) [1]: 3.2 µM

CC(C)=CCC[C@](C)(O)[C@H]1CC[C@]2(C)[C@@H]1[C@H](O)C[C@@H]1[C@@]3(C)CC[C@H](O)C(C)(C)[C@@H]3[C@@H](O[C@@H]3O[C@H](CO)[C@@H](O)[C@H](O)[C@H]3O)C[C@]12C [Compound 8, ginsenoside RH1]
MEC (minimum effective concentration producing telomerase activity twice that of DMSO control) [1]: 10 µM

EGF: epidermal growth factor
telomerase activity ([1]; cells treated with 10 nM EGF): about 200%

astragaloside IV 16-one [Compound 4]
MEC (minimum effective concentration producing telomerase activity twice that of DMSO control) [1]: 0.03 µM
